Assays:
U87-luci glioma = assay: Glioma growth (bioluminescent imaging) and life cycle, in situ glioma model; assay type: in vivo, BABL/c nude mice; settings: 10 mg/kg tail vein
Protocol: Administration was performed for 7 consecutive days. Growth of glioma was monitored by a bioluminescent imaging technology. […] A physiological saline group was used as control.
Male BABL/c nude mice (20±2 g) were used as the model animals. U87-luci glioma cells expressing luciferase were inoculated in the striatum area of nude mice at a concentration of 5×10^5 cells/5 μL by means of a brain stereotaxic instrument (inoculation coordinates, 0.8 mm on the anterior side of bregma, 2 mm on the right side, and 3 mm in depth), to construct an in situ glioma model. […] Administration was performed for 7 consecutive days. Growth of glioma was monitored by a bioluminescent imaging technology.

[1] = test system: pathological blood-brain barrier (bEnd.3 cells co-incubated with U87 MG glioma cells); assay: Pathological blood-brain barrier Transwell model, FITC-dextran transmembrane transport; assay type: cell-based; settings: 10 μM, 24 hours, then FITC-dextran 10 kDa for 4 hours; FIG. 11
Protocol: A Transwell model of co-incubation of brain microvascular endothelial cells bEnd.3 and glioma cells U87 MG simulates a pathological blood-brain barrier. Axitinib (10 μM), an Axitinib analog of phosphatidylinositol kinase (PI3K) inhibitor LY294002 (10 μM), protein kinase B (AKT) agonist SC79 (10 μM) were added into the Transwell chamber. After 24 hours, the Transwell chamber and the outer chamber were cleaned with PBS, and a solution of FITC-dextran in HBSS was added to the Transwell chamber, and was left for 4 hours. […] A physiological blood-brain barrier simulated by a Transwell model of brain microvascular endothelial cell bEnd.3 was used as a positive control (n=3).
U87 MG glioma cells were used as brain tumor model cells. 1.5 mL suspension of well-grown U87 MG cell suspension was inoculated in a 12-well plate at a cell density of 2×10^5/well. Incubation was continued at 37° C. and 5% CO2 until the cells adhere. […]

[2] = test system: pathological blood-brain barrier (bEnd.3 cells with tumor cell culture); assay: Tumor cell culture co-incubated with bEnd.3 cells (U87MG removed), FITC-dextran transmembrane transport; assay type: cell-based; settings: tumor cell culture kept, 10 μM, 24 hours, FIG. 16
Protocol: FIG. 16: Co-incubation of a tumor cell culture and bEnd.3 cells in vitro, and FITC-dextran transmembrane transport efficiency. A Transwell model of co-incubation of brain microvascular endothelial cells bEnd.3 and glioma cells U87 MG simulates a pathological blood-brain barrier. Once a pathological blood-brain barrier model was formed, U87MG glioma cells in the outer chamber of Transwell were removed, while the tumor cell cultures were remained. Axitinib (10 μM) and an Axitinib analog of phosphatidylinositol kinase (PI3K) inhibitor LY294002 (10 μM) were added to the Transwell chamber. After 24 hours, the Transwell chamber and the outer chamber were cleaned with PBS, and a FITC-dextran solution in HBSS was added to the Transwell chamber, and was allowed to act for 4 hours. The result as shown in the figure was the FITC-dextran concentration of the Transwell outer chamber as detected by a fluorescence spectrophotometer. […]
The physiological blood-brain barrier and the pathological blood-brain barrier as constructed in Method 1 and Method 2 in the Example 1 were used as models, respectively. […] After the cells were incubated at 37° C. in the dark for 4 hours, concentration of FITC-dextran transferred to the outer chamber via the Transwell chamber was detected with a fluorescence spectrophotometer.

[3] = test system: pathological blood-brain barrier (bEnd.3 cells co-incubated with U87 MG glioma cells); assay: Pathological blood-brain barrier Transwell model (bEnd.3 co-incubated with U87 MG), cell transmembrane resistance; assay type: cell-based; settings: 24 hours
Protocol: A Transwell model of co-incubation of brain microvascular endothelial cells bEnd.3 and glioma cells U87 MG simulates a pathological blood-brain barrier. Axitinib at different concentrations (0, 0.05 μg/mL, 0.1 μg/mL, 0.5 g/mL, 1 μg/mL, 4 μg/mL, 5 μg/mL, 10 μg/mL, 20 μg/mL) was allowed to act on the Transwell chamber. After 24 hours, cell transmembrane resistances were detected by a cell resistance meter. A physiological blood-brain barrier simulated by a Transwell model of brain microvascular endothelial cell bEnd.3 was used as a positive control (n=5).
A Transwell model of co-incubation of brain microvascular endothelial cells bEnd.3 and glioma cells U87 MG simulates a pathological blood-brain barrier. Axitinib (10 μM), an Axitinib analog of phosphatidylinositol kinase (PI3K) inhibitor LY294002 (10 μM), protein kinase B (AKT) agonist SC79 (10 μM) were added into the Transwell chamber. After 24 hours, cell transmembrane resistance was detected by a cell resistance meter. A physiological blood-brain barrier simulated by a Transwell model of brain microvascular endothelial cell bEnd.3 was used as a positive control (n=5).
U87 MG glioma cells were used as brain tumor model cells. 1.5 mL suspension of well-grown U87 MG cell suspension was inoculated in a 12-well plate at a cell density of 2×10^5/well. Incubation was continued at 37° C. and 5% CO2 until the cells adhere. Then, the physiological blood-brain barrier as constructed by Method 1 in the Example 1, i.e., the Transwell chamber with bEnd.3 cells grown, was transferred to the 12-well plate with U87 MG cells grown. Co-culture was further continued for 24 hours to obtain a cell model of pathological blood-brain barrier.
The physiological blood-brain barrier as constructed by Method 2 in the Example 1 was used as a model. Axitinib at different concentrations was added to the Transwell chamber for stimulation.
The physiological blood-brain barrier and the pathological blood-brain barrier as constructed in Method 1 and Method 2 in the Example 1 were used as models, respectively. Axitinib (10 μM), an Axitinib analog of phosphatidylinositol kinase (PI3K) inhibitor LY294002 (10 μM), protein kinase B (AKT) agonist SC79 (10 μM) were added into the Transwell chamber of the pathological blood-brain barrier model as constructed in Method 2 in the Example 1. After 24 hours, the Transwell chamber with bEnd.3 cells grown was transferred to another 12-well plate, washed with PBS for 3 times, and 0.5 mL HBSS nutrient solution was added to the chamber, and the outer chamber was supplemented with 1.5 mL HBSS nutrient solution. The cells were equilibrated at 37° C. for 15 minutes. Cell transmembrane resistance was detected by a cell resistance meter.

CNC(=O)c1ccccc1Sc1ccc2c(/C=C/c3ccccn3)n[nH]c2c1 [Axitinib, N-methyl-2-((3-((1E)-2-(pyridine-2-yl)ethenyl)-1H-indazol-6-yl)sulfanyl)benzamide]
Growth of glioma in situ (U87-luci glioma; 7 consecutive days from Day 4, vs saline control, FIG. 20): significantly inhibited
Life cycle of the animal (U87-luci glioma; 7 consecutive days, FIG. 21): significantly prolonged
FITC-dextran transmembrane transport (blood-brain barrier permeability) [1]: reduce blood-brain barrier permeability
FITC-dextran transmembrane transport (blood-brain barrier permeability) [2]: blood-brain barrier permeability is reduced
Cell transmembrane resistance (blood-brain barrier function) ([3]; 10 μM, FIG. 10): promote recovery of a blood-brain barrier function from a pathologically impaired state to a state close to a physiological barrier
Concentration at which blood-brain barrier permeability is effectively reduced (cell transmembrane resistance) ([3]; FIG. 9): 0.5˜20 μg/mL
Concentration at which blood-brain barrier permeability is effectively reduced (cell transmembrane resistance) ([3]; FIG. 9, same range in μM): 1.29 to 51.75 µM
Cell transmembrane resistance, dependence on concentration ([3]; Axitinib 0-20 μg/mL, FIG. 9): dose-dependent

Reference: patent US12419875B2, “Use of Axitinib and analogs thereof in preparing blood-brain barrier permeability regulator” (ZHEJIANG UNIVERSITY, priority 2018, dated 2025)
